These results are taken from DBAASP.

Converted amounts (≈) assume the structure as drawn.

Among the test systems are Bacillus subtilis PS832; Escherichia coli DL7; Candida krusei ATCC 6258; Vibrio cholerae non-O139; Vibrio cholerae non-O1; Acinetobacter baumannii; Escherichia coli ECO1; Escherichia coli ECO2; Escherichia coli; Pseudomonas aeruginosa; Staphylococcus aureus.
Common to all, as to experiment: ≥ marks a high value that may be exact or a test limit, other limits are often not marked, values filed in µg/mL are converted to µM
For assay [1], the system named is Klebsiella aerogenes ATCC 13048.
Assay [2] has as its system Staphylococcus epidermidis ATCC 12228.
Assay [3] relates to Candida albicans ATCC 90028.
For assay [4], the system named is Candida parapsilosis ATCC 22019.
For assay [5], the system named is Cryptococcus neoformans ATCC 90012.
The test system of assay [6] is Escherichia coli ATCC 25922.
Assay [7] deals with Pseudomonas aeruginosa ATCC 27853.
Assay [8] has as its system Staphylococcus aureus ATCC 25923.
Assay [9] relates to Salmonella enterica subsp. enterica serovar Typhi DMST 22842.
The test system of assay [10] is Cronobacter muytjensii ATCC 51329.
Assay [11] relates to Cronobacter sakazakii ATCC BAA-894.
Assay [12] deals with Cronobacter sakazakii DPC 6440.
Assay [13] relates to Cronobacter sakazakii DSM 4485.
For assay [14], the system named is Escherichia coli NCIMB 11843.
The subject of assay [15] is Klebsiella pneumoniae NCIMB 13218.
Assay [16] relates to Pseudomonas fluorescens NCIMB 9046.
Assay [17] concerns Salmonella enterica subsp. enterica serovar Typhimurium LT2.
The test system of assay [18] is Staphylococcus aureus NCTC 8325-4.
Assay [19] deals with Staphylococcus aureus Newman.
The subject of assay [20] is Staphylococcus aureus RF122.
In assay [21] the test system is Staphylococcus aureus RN4220.
Assay [22] relates to Staphylococcus aureus SA113.
For assay [23], the system named is Acinetobacter baumannii ABA1.
Assay [24] has as its system Acinetobacter baumannii ABA2.
Assay [25] relates to Porphyromonas gingivalis ATCC 33277.
In assay [26] the test system is Pseudomonas aeruginosa PAER10.
The subject of assay [27] is Pseudomonas aeruginosa PAER1.
In assay [28] the test system is Pseudomonas aeruginosa PAER4.
Assay [29] has as its system Pseudomonas aeruginosa PAER7.
In assay [30] the test system is Pseudomonas aeruginosa PAO1.
The test system of assay [31] is Salmonella enterica serovar Typhimurium.
In assay [32] the test system is Staphylococcus aureus S5375.
Assay [33] deals with Staphylococcus aureus SAU2.
The test system of assay [34] is Staphylococcus aureus SAU5.
Assay [35] concerns Staphylococcus aureus SAU7.
Assay [36] concerns Listeria monocytogenes LO28.

On to `CC[C@H](C)[C@H](NC(=O)[C@H](CCCN=C(N)N)NC(=O)[C@H](CCCCN)NC(=O)[C@H](CC(C)C)NC(=O)[C@H](CC(C)C)NC(=O)CNC(=O)[C@H](Cc1cnc[nH]1)NC(=O)CNC(=O)CN)C(=O)N[C@@H](CCCCN)C(=O)N[C@H](C(=O)N[C@@H](CC(C)C)C(=O)N[C@@H](CC(C)C)C(N)=O)[C@@H](C)O` [GGHGLLKRIKTLL], for which the minimum inhibitory concentration (MIC) is 2 µM (≈ 2.81 µg/mL) in the assay on Bacillus subtilis PS832, 4 µM (≈ 5.62 µg/mL) with Escherichia coli DL7, ≥ 32 µM in assay [1] and 8 µM (≈ 11.2 µg/mL) in assay [2].
As for `CC[C@H](C)[C@H](NC(=O)[C@H](Cc1ccccc1)NC(=O)[C@H](CC(N)=O)NC(=O)[C@H](CCCCN)NC(=O)[C@H](C)NC(=O)[C@@H](NC(=O)[C@H](CC(N)=O)NC(=O)[C@H](Cc1ccccc1)NC(=O)[C@H](C)NC(=O)[C@H](C)NC(=O)[C@H](CCCCN)NC(=O)CNC(=O)[C@@H](NC(=O)[C@H](CCCCN)NC(=O)[C@H](CCCCN)NC(=O)[C@H](C)NC(=O)[C@@H](NC(=O)[C@H](CC(=O)O)NC(=O)[C@H](CC(C)C)NC(=O)[C@H](Cc1c[nH]c2ccccc12)NC(=O)CN)C(C)C)[C@@H](C)CC)C(C)C)C(N)=O` [GWLDVAKKIGKAAFNVAKNFI], the minimum inhibitory concentration (MIC) in assay [3] came out at 8 µM (≈ 18.3 µg/mL); against Candida krusei ATCC 6258, 8 µM (≈ 18.3 µg/mL); in [4], 4 µM (≈ 9.16 µg/mL); in assay [5], 8 µM (≈ 18.3 µg/mL); in assay [6], 4 µM (≈ 9.16 µg/mL); in [7], 8 µM (≈ 18.3 µg/mL). In [8], the minimal inhibitory concentration (MIC) came out at 1 µM (≈ 2.29 µg/mL).
Regarding `NC(=O)[C@H](Cc1c[nH]c2ccccc12)NC(=O)[C@H](Cc1c[nH]c2ccccc12)NC(=O)[C@H](Cc1c[nH]c2ccccc12)NC(=O)[C@H](CCCN=C(N)N)NC(=O)[C@H](CCCN=C(N)N)NC(=O)[C@H](Cc1c[nH]c2ccccc12)NC(=O)[C@H](Cc1c[nH]c2ccccc12)NC(=O)[C@H](CCCN=C(N)N)NC(=O)[C@H](Cc1c[nH]c2ccccc12)NC(=O)[C@H](Cc1c[nH]c2ccccc12)NC(=O)[C@@H](N)CCCN=C(N)N` [RWWRWWRRWWW], the MIC was ≥ 46.8 µM in assay [9]; > 46.8 µM in assay [8]; > 46.8 µM in assay [2]; ≥ 46.8 µM in the assay on Vibrio cholerae non-O139; ≥ 46.8 µM against Vibrio cholerae non-O1.
Take `CC(C)C[C@H](NC(=O)[C@H](CCCN=C(N)N)NC(=O)[C@H](C)NC(=O)[C@H](CC(N)=O)NC(=O)[C@H](CCC(=O)O)NC(=O)[C@H](CC(N)=O)NC(=O)[C@H](CC(C)C)NC(=O)[C@@H](N)C(C)C)C(=O)O` [VLNENARL]: the MIC in assay [10], in [11], in assay [12], in [13], in assay [14] and in [15] was ≥ 1250 µM throughout. The minimum inhibitory concentration (MIC) in [16], in assay [17], in [18], in [19], in assay [20] and in [21] was ≥ 1250 µM throughout. Further, in assay [22], the MIC is ≥ 625 µM.
As to `CC[C@H](C)[C@H](NC(=O)[C@H](CCCN=C(N)N)NC(=O)[C@H](Cc1c[nH]c2ccccc12)NC(=O)[C@H](CCC(N)=O)NC(=O)[C@@H](N)C(C)C)C(=O)N[C@@H](CCCN=C(N)N)C(=O)N[C@H](C(=O)N[C@@H](C)C(=O)N[C@H](C(=O)N[C@H](C(=O)N[C@@H](CCCN=C(N)N)C(=O)N[C@@H](CCCCN)C(=O)O)[C@@H](C)CC)C(C)C)C(C)C` [VQWRIRVAVIRK], the MIC is 5.25 µM (≈ 8 µg/mL) in [23]; 7.42 µM (≈ 11.3 µg/mL) in [24]; 10.5 µM (≈ 16 µg/mL) in the assay with Acinetobacter baumannii; 10.5 µM (≈ 16 µg/mL) in assay [6]; 3.71 µM (≈ 5.66 µg/mL) against Escherichia coli ECO1; 3.71 µM (≈ 5.66 µg/mL) in the assay with Escherichia coli ECO2. Besides, the minimal inhibitory concentration (MIC) with Escherichia coli was 42 µM (≈ 64 µg/mL); in assay [25] it was 5.25 µM (≈ 8 µg/mL); in assay [26], 2.62 µM (≈ 4 µg/mL); in [27] it was 3.71 µM (≈ 5.66 µg/mL); in assay [28] it was 10.5 µM (≈ 16 µg/mL); in assay [29], 21 µM (≈ 32 µg/mL). Also, the MIC came to 10.5 µM (≈ 16 µg/mL) in assay [30]; 10.5 µM (≈ 16 µg/mL) against Pseudomonas aeruginosa; 5.25 µM (≈ 8 µg/mL) in assay [31]; 10.5 µM (≈ 16 µg/mL) in assay [8]; 14.8 µM (≈ 22.6 µg/mL) in assay [32]; 21 µM (≈ 32 µg/mL) in assay [33]. The values for the minimum inhibitory concentration (MIC) (in assay [34]; in assay [35]; in the assay on Staphylococcus aureus) were 21 µM (≈ 32 µg/mL), 21 µM (≈ 32 µg/mL) and 14.8 µM (≈ 22.6 µg/mL), respectively.
As for `CC[C@H](C)[C@H](NC(=O)[C@@H](N)Cc1c[nH]c2ccccc12)C(=O)N[C@@H](CCC(N)=O)C(=O)N1CCC[C@H]1C(=O)N[C@@H](CCCCN)C(=O)N[C@H](C(=O)N[C@@H](CCCCN)C(=O)N[C@H](C(=O)N[C@H](C(=O)N1CCC[C@H]1C(=O)N[C@@H](Cc1ccc(O)cc1)C(=O)N[C@@H](C)C(=O)N[C@@H](CCCN=C(N)N)C(=O)N[C@@H](Cc1ccc(O)cc1)C(=O)N[C@@H](CC(C)C)C(=O)O)[C@@H](C)CC)C(C)C)[C@@H](C)O` [WIQPKTKVIPYARYL], the MIC in [12] was ≥ 39.1 µM; in assay [36], 19.5 µM (≈ 36.6 µg/mL).
